For nine molecules, GI50 and TGI results are on record in PubChem BioAssay (NCI).

Holding throughout (assay): NCI anticancer screen, dose series, 48 h
The test system of assay [1] is 786-0 renal.
The test system of assay [2] is SN12C renal.
The test system of assay [3] is SK-OV-3 ovarian.
The test system of assay [4] is M14 melanoma.
Assay [5] has as its system MALME-3M melanoma.
Assay [6] concerns T-47D breast.
Assay [7] has as its system CAKI-1 renal.
In assay [8] the test system is NCI/ADR-RES ovarian.
The test system of assay [9] is SK-MEL-5 melanoma.
The subject of assay [10] is SK-MEL-2 melanoma.

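Growth conditions: 96-well plates. Treatment: test compound, 48 hours, 5 concentrations. Analysis: linear interpolation between bracketing concentrations; unreached endpoints set to highest concentration. GI50: concentration for 50% inhibition of growth. TGI: total growth inhibition.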

For `COc1ccc(-c2cc(/C=C/C(=O)c3ccc(OC)c(OC)c3)[nH]n2)cc1`, the GI50 in assay [1] is 1.6 µM; in assay [2], 1.64 µM; in assay [3], 5.56 µM; in [4] it was 2.17 µM; in assay [5] it was 1.62 µM; in assay [6] it was 1.6 µM. Besides, the GI50 was 1.55 µM in assay [7], 3.44 µM in assay [8] and 1.77 µM in assay [9]. For the same molecule, the TGI in [1] was 3.09 µM; in assay [2] it was 3.78 µM; in assay [3] it was 17.1 µM; in assay [4], 4.97 µM; in [5] it was 3.45 µM; in assay [6] it was 5.15 µM. In addition, the TGI in assay [7] came out at 3.52 µM; in assay [8], 24.8 µM; in [9] it was 3.72 µM.

For `COC(=O)c1ccc2c(c1)/C(=C\c1cc(Br)c(O)c(Br)c1)C(=O)N2`, the GI50 in assay [1] is 10.1 µM; in assay [2], 10 µM; in assay [3], 6.57 µM; in [4] it was 1.88 µM; in assay [5] it was 2.08 µM; in [6], 8.72 µM. The figures for the GI50 in [7], in [8] and in assay [9] were 4.68 µM, 15.7 µM and 4.48 µM, respectively. Moreover, the TGI in assay [1] was greater than 25 µM; in [2], greater than 25 µM; in [3], greater than 25 µM; in assay [4], 9.23 µM; in assay [5], 13.8 µM; in [6] it was greater than 25 µM. Moreover, the TGI in assay [7] was greater than 25 µM; in [8], greater than 25 µM; in assay [9] it was greater than 16.5 µM.

Regarding `CN(C)c1ccc(N=Nc2ccccn2)c(O)c1`, the GI50 is 0.246 µM in assay [1]; 0.396 µM in [2]; 0.42 µM in [3]; 1.44 µM in [5]; 0.419 µM in assay [6]; 0.344 µM in assay [7]. The GI50 in assay [8] was 0.281 µM; in assay [10], 2.79 µM; in [9], 0.433 µM. In addition, the TGI was 15.9 µM in assay [1]; greater than 100 µM in assay [2]; greater than 28.3 µM in [3]; greater than 100 µM in assay [5]; greater than 49.1 µM in [6]; greater than 100 µM in assay [7]. For the same molecule, the TGI in [8] is greater than 27.6 µM; in [10], greater than 100 µM; in [9] it was 3.35 µM.

`C#Cc1nc(Nc2cc(C)[nH]n2)c2ccccc2n1`: the GI50 in assay [1] was 0.349 µM; in assay [2] it was 0.236 µM; in assay [3], 3.19 µM; in [4], 0.232 µM; in [5], 0.295 µM; in [6] it was 0.39 µM. The GI50 in assay [7] was 0.442 µM; in assay [8] it was 0.402 µM; in assay [9], 0.139 µM. Further, the TGI was 1.13 µM in assay [1]; 0.726 µM in assay [2]; greater than 100 µM in [3]; 0.559 µM in [4]; 0.915 µM in [5]; 2.11 µM in assay [6]. The TGI in [7] was 2.02 µM; in assay [8], greater than 100 µM; in assay [9], 0.28 µM.

As for `O=c1[nH]c2ccc(O)cc2o1`, the TGI in assay [1], in assay [2], in [3], in assay [4], in assay [5] and in [6] was greater than 100 µM in each case. Also, the TGI in assay [7], in assay [8] and in [9] was greater than 100 µM each time.

For `Cc1nc2cc(Nc3nc(Nc4ccc(F)cc4)nc(-c4cccs4)n3)ccc2n1Cc1ccccc1`, the GI50 in assay [1] was 3.07 µM; in [2], 5.73 µM; in [3], 33.4 µM; in assay [4] it was 5.42 µM; in assay [6], 2.6 µM; in assay [7], 5.45 µM. For the same molecule, the values for the GI50 in assay [8], in assay [10] and in assay [9] were 3.66 µM, 2.36 µM and 4.18 µM, respectively. The TGI in [1] was 9.11 µM; in [2], 58.1 µM; in [3], greater than 100 µM; in [4] it was 24.6 µM; in [6] it was 9.33 µM; in assay [7], greater than 100 µM. The TGI in [8] came to 32.1 µM; in assay [10] it was 5.44 µM; in assay [9], 17.3 µM.

In the case of `BrCc1cccc(C[P+](c2ccccc2)(c2ccccc2)c2ccccc2)c1`, the GI50 is 46.2 µM in assay [1]; 18.4 µM in [2]; 70.1 µM in assay [3]; 82.8 µM in [5]; 3.99 µM in assay [6]; greater than 100 µM in assay [7]. The GI50 is greater than 100 µM in [8], 27.9 µM in assay [10] and 5.14 µM in assay [9]. Moreover, the TGI in [1], in [2], in [3], in [5], in assay [6] and in assay [7] was greater than 100 µM in each case. Also, the TGI was greater than 100 µM in assay [8], greater than 100 µM in assay [10] and 24 µM in [9].

As for `CC1CCN(C(=O)OCc2nc3nc(Cl)nc(N4CCOCC4)c3[nH]2)CC1`, the GI50 in [1] is 1.29 µM; in assay [2], 0.865 µM; in assay [3], 7.35 µM; in assay [5], 1.5 µM; in [6] it was 1.76 µM; in assay [7] it was 0.72 µM. Moreover, the figures for the GI50 in assay [8], in assay [10] and in [9] were 2.21 µM, 1.86 µM and 1.74 µM, respectively. Also, the TGI in [1] is 2.69 µM; in assay [2], 2.16 µM; in assay [3], 21 µM; in [5], 2.86 µM; in [6], 4.89 µM; in [7] it was 2.27 µM. The values for the TGI in [8], in [10] and in assay [9] were 10.4 µM, 3.77 µM and 3.14 µM, respectively.

As to `O=C1c2cccc3cccc(c23)C(=O)N1CCCCCN1CCN(CCCCCOc2ccc(-c3nc4ccc(N5CCOCC5)cc4[nH]3)cc2)CC1`, the GI50 in [1] was 22.9 µM; in assay [2] it was greater than 100 µM; in [3], greater than 100 µM; in [5], 17.7 µM; in assay [6], 2.01 µM; in [7] it was greater than 45.6 µM. Also, the GI50 was 8.7 µM in assay [8], 10.7 µM in [10] and 6.43 µM in [9]. Moreover, the TGI in assay [1] was 51.3 µM; in assay [2], greater than 100 µM; in assay [3], greater than 100 µM; in [5], 40 µM; in assay [6], 7.71 µM; in assay [7], greater than 70.6 µM. For the same molecule, the results for the TGI in assay [8], in assay [10] and in assay [9] were greater than 60.2 µM, 32.8 µM and 19.9 µM, respectively.
